Results on ten compounds are retold here after ChEMBL document CHEMBL1149935, “17-hydroxywortmannin: A potent inhibitor of bone resorption and phosphatidylinositol-3-kinase” (Bioorg Med Chem Lett, 1995).

In general, IC50 refers to the concentration that inhibits the measured activity by half. Read a high IC50 as lower potency.

A short description of test [1]: Inhibition of bovine Phosphatidylinositol 3-kinase. Further details: species or system Bos taurus.
For the next test, the species on record is Gallus gallus. As to the kind of experiment: Compound was evaluated for inhibitory activity against bone resorption in avian osteoclast.

In the case of `COC(=O)c1coc2c(O)c3c(c(C)c12)C=C[C@]1(C)C(=O)CC[C@@H]31`, the IC50 in test [1] is 4.6 µM; in the test filed under Gallus gallus, > 1 µM.

With `COC[C@H]1OC(=O)c2coc3c2[C@@]1(C)C1=C(C3=O)[C@@H]2CCC(=O)[C@@]2(C)CC1`, the IC50 in test [1] came out at 0.0167 µM; in the test filed under Gallus gallus, 0.506 µM.

In test [1], `COC[C@H]1OC(=O)c2coc3c2[C@@]1(C)C1=CC[C@]2(C)C(=O)CC[C@H]2C1C3=O` (stereo partly drawn) registered an IC50 of 0.054 µM. This counts as double-digit nanomolar.

For the compound `COC[C@H]1OC(=O)c2coc3c2[C@@]1(C)C1=C(C3=O)[C@@H]2CC[C@H](O)[C@@]2(C)C[C@H]1OC(C)=O`, the results for the IC50 (in test [1]; in the test listed under Gallus gallus) were 0.0005 µM and 0.01 µM, respectively.

In the case of `COC[C@H]1OC(=O)c2c(C)oc3c2[C@@]1(C)C1=C(C3=O)[C@@H]2CCC(=O)[C@@]2(C)C[C@H]1OC(C)=O`, the IC50 in test [1] was > 0.5 µM; in the test listed under Gallus gallus, > 1 µM.

Take `Cc1c2c(c(O)c3occ(C(=O)O)c13)C1CCC(=O)[C@@]1(C)C=C2` (stereo partly drawn): the IC50 was > 32 µM in test [1] and > 1 µM in the test listed under Gallus gallus.

In the case of `COC[C@H]1OC(=O)c2coc3c2[C@@]1(C)C1=C(C3=O)C2CCC(O)[C@@]2(C)CC1` (stereo partly drawn), inhibition in the test filed under Gallus gallus was half-maximal at 0.103 µM (IC50).

With `NCCCC(O)(P(=O)(O)O)P(=O)(O)O` [ALENDRONIC ACID], the IC50 in test [1] is > 50 µM; in the test listed under Gallus gallus, 0.1 µM.

For `CC(O)(P(=O)(O)O)P(=O)(O)O` [ETIDRONIC ACID], the IC50 is > 50 µM in test [1] and 100 µM in the test listed under Gallus gallus.

Regarding `COC[C@H]1OC(=O)c2coc3c2[C@@]1(C)C1=C(C3=O)[C@@H]2CCC(=O)[C@@]2(C)C[C@H]1OC(C)=O` [WORTMANNIN], the IC50 in test [1] turned out to be 0.0042 µM; in the test filed under Gallus gallus, 0.098 µM.
